Measurements: patent US20260325473A1, “N-Beta-Hydroxybutyryl-Amino Acids and Related Compositions and Methods” (The Board of Trustees of the Leland Stanford Junior …, priority 2023, published 2026)

What was measured:
[1] = test system: diet-induced obese (DIO) mice; experiment: Acute administration in DIO mice in metabolic chambers; format: in vivo, mouse; details: 50 mg/kg IP, single
Protocol: (§1) General animal information. Animal experiments were performed according to procedure approved by the Stanford University Administrative Panel on Laboratory Animal Care (APLAC). Mice were maintained in 12-hr light-dark cycles at 22° C. and ~50% relative humidity and fed a standard irradiated rodent chow diet. Where indicated, high-fat diet (D12492, Research Diets 60% kcal from fat) and ketogenic diet (D06040601, Research Diets, 80% kcal fat/15% kcal protein/5% kcal carbohydrate) was used. Male C57BL/6J (stock no. 000664) and male C57BL/6J DIO mice (stock no. 380050) were purchased from Jackson Laboratory. Male C57BL/6NCrl (stock no. 027) mice were purchased from Charles River Laboratory. Whole body CNDP2-KO mice (catalog number, C57BL/6NCrl-Cndp2em1 (IMPC) Mbp/Mmucd, RRID: MMRRC_043492-UCD) were obtained from the Mutant Mouse Regional Resource Center, a NCRR-NIH funded strain repository. For in vivo injection of mice with metabolites, compounds were dissolved in 18:1:1 (by volume) of saline/Kolliphor EL (Sigma Aldrich)/DMSO. Compounds were administered to mice daily via intraperitoneal injections at 5 μl/g body weight at the indicated doses. For all injection experiments, mice were mock injected with the vehicle for 3-5 days until body weights have stabilized. Sample sizes were determined on the basis of previous experiments using similar methodologies. For metabolite administration experiments, mice were randomly assigned to treatment groups. Experimenters were not blinded to groups.

DIO mice = experiment: Plasma AST, ALT, TG, HDL, LDL in DIO mice after chronic treatment; format: in vivo, mouse; details: 50 mg/kg/day IP; 14 days
Protocol: as §1

CNDP2 = molecular target: T1, CNDP2 (Mus musculus, UniProt Q9D1A2); experiment: In vitro synthase (condensation) activity, lysates of CNDP2-transfected HEK293T cells; format: biochemical; design: expressed in transfected cells; host or cells: HEK293T (lysate); details: role: product
T1 sequence (Q9D1A2 1-475): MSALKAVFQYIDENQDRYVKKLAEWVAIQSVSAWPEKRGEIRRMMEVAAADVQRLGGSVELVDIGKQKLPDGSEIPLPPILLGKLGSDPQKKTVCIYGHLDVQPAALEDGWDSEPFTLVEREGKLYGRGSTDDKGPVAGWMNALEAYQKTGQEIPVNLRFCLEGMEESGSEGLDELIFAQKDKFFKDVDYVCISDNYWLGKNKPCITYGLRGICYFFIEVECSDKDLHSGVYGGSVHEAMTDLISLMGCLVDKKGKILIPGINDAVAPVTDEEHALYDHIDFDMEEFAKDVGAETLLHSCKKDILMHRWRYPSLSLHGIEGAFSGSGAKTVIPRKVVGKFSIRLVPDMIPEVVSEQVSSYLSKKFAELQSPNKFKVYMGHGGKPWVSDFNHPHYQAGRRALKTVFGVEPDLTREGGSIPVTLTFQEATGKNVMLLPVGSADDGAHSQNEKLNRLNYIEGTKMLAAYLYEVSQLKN
Protocol: In vitro enzyme activity assays. HEK293T cells were transfected with GFP, CNDP2 or CNDP2-E166A using PolyFect (Qiagen 301105) according to the manufacturer's instructions. The medium was changed one day post-transfection. After an additional 24 h, the cells were harvested in PBS, lysed by sonication and centrifuged (10 min at 15,000 rpm) to remove debris. Supernatant was collected and protein concentrations were adjusted. The in vitro reactions were conducted in Eppendorf tubes with 100 μL of 1 mg/mL protein and 20 mM substrates for keto amino acid synthase activity assays and. Reactions were incubated for 1 h at 37° C. and 20 μl of 1 M HCl were added to acidify the medium and to protonate keto amino acids. Reactions were vortexed and 400 μL of ethyl acetate were added to each reaction. Reactions were vortexed for 30 s to extract keto amino acids into the organic layer and centrifuged at 4° C. for 10 min at 15,000 r.p.m. A total of 300 μl from the top layer was transferred to a new Eppendorf tube and dried down under a stream of nitrogen. The residue was re-suspended in 150 μl of an 2:1:1 mixture of acetonitrile: methanol: water. The mixture was centrifuged at 4° C. for 10 min at 15,000 r.p.m. and the supernatant was transferred to a LC-MS vial.

product formed with BHB and phenylalanine as only substrates (CNDP2; BHB alone with 20 mM phenylalanine): exclusive product formed
products formed from combined lactate and BHB (CNDP2; lactate and BHB at varying concentrations, phenylalanine 20 mM): simultaneous production
SMILES: CC(O)CC(=O)N[C@@H](Cc1ccccc1)C(=O)O (some centres unmarked) [BHB-Phe, N-betahydroxybutyryl-phenylalanine]
food intake (metabolic chambers) [1]: reduced food intake
ambulatory movement ([1]; over 10 h): without affecting movement
energy expenditure: carbon dioxide production (VCO2) ([1]; over 10 h): without affecting movement, oxygen consumption or CO^2 production
energy expenditure: oxygen consumption (VO2) ([1]; over 10 h): without affecting movement, oxygen consumption
reduction of food intake ([1]; over 10 h): ~ 30%
respiratory exchange ratio (RER) ([1]; over 10 h): reduction in respiratory exchange ratio (RER)
ambulatory movement ([1]; over 10 h, listed as Keto-Phe): no effects
energy expenditure: carbon dioxide production (VCO2) ([1]; over 10 h, listed as Keto-Phe): no effects
energy expenditure: oxygen consumption (VO2) ([1]; over 10 h, listed as Keto-Phe): no effects
respiratory exchange ratio (RER) ([1]; over 10 h, listed as Keto-Phe): no effects
plasma ALT (DIO mice): reductions
plasma AST (DIO mice): reductions
plasma HDL-cholesterol (DIO mice): no changes
plasma LDL-cholesterol (DIO mice): no changes
plasma total triglycerides (TG) (DIO mice): reductions
